Test results published in patent publication US20040005294A1, “IGFBP-3 in the diagnosis and treatment of cancer” (priority 2002, published 2004).

Key:
Format in all cases: cell-based, human
[1] = test system: HB56B cells; assay: MTT proliferation assay, HB56B cells; settings: 10^−9 M to 10^−7 M, 1-3 days
Procedure: To measure the effects of deguelin on cell proliferation, NHBE, 1799, 1198, 1170-1, and HB56B cells were plated at concentrations of 2×10^3 to 4×10^3 cells/well in 96-well plates. The next day, cells were treated with either 0.1% DMSO as a diluent control or various concentrations of deguelin (final DMSO concentration=0.1%). At the end of the assay time period, cell proliferation was measured by the 3-(4,5-dimethylthiazol-2-yl)-2,5-diphenyltetrazolium bromide (MTT) assay as described (Lee et al., 2002). Six replicate wells were used for each analysis, and data from replicate wells are presented as means with 95% confidence intervals (CIs). For some experiments, the drug concentration required to inhibit cell growth by 50% (IC50) was determined by interpolation from dose-response curves. At least three independent experiments were performed.

[2] = test system: NHBE cells; assay: Cell cycle analysis by flow cytometry, NHBE cells; settings: 10^−7 M, 3 days
Procedure: NHBE and 1799 cells were plated at a concentration of 2×10^5 cells/well in six-well plates. The next day, cells were treated with deguelin (various concentrations) or DMSO (0.1%) for 3 days to achieve maximal antiproliferative effects (determined from growth curves). All cells (nonadherent and adherent) were harvested, fixed with 1% paraformaldehyde and 70% ethanol, stained with 50 μg/mL propidium iodide, and subjected to flow cytometric analysis to determine the percentage of cells in specific phases of the cell cycle (G1, S, and G2/M) as described (Sun et al., 1997). Flow cytometric analysis was performed using a Coulter EPICS Profile II flow cytometer (Coulter Corp., Miami, Fla.) equipped with a 488-nm argon laser. Approximately 10 000 events (cells) were evaluated for each sample. Two independent experiments were performed and one is presented.

[3] = test system: 1799 cells; assay: Immunoblot of apoptosis-related enzymes and Bcl family members; settings: 3 days
Procedure: (§1) Whole cell lysates from 1×10^6 cells were prepared in lysis buffer as described (Lonardo et al., 2002). Equivalent amounts of protein were resolved by sodium dodecyl sulfate (SDS)-polyacrylamide gels (7.5%-12%) and transferred to a nitrocellulose membrane. After the membrane was blocked in Tris-buffered saline (TBS) containing 0.05% Tween 20 (TBST) and 5% (w/v) nonfat powdered milk, the membrane was incubated with primary antibody at the appropriate dilution in TBS-5% nonfat milk at 4° C. for 16 h. The membrane was then washed multiple times with TBST and incubated with the appropriate horseradish peroxidaseconjugated secondary antibody for 1 h at room temperature. The protein-antibody complexes were detected by enhanced chemilurminescence (ECL kit; Amersham, Arlington Heights, Ill.), according to the manufacturer's recommended protocol.
The following antibodies and working dilutions were used for the Western blots: rabbit polyclonal antibodies against human phosphorylated Akt (pAkt) (Ser473) (1:1000), Akt (1:1000), phosphorylated glycogen synthase kinase 3β (pGSK-3β) (Ser9) (1:1000), and mouse monoclonal antibody against human antiphosphorylated MAPK (anti-pMAPK) (Thr202/Tyr204) (1:500) (Cell Signaling Technology, Beverly, Mass.); rabbit polyclonal anti-GSK-3α/β (1:1000) (BD Transduction Laboratories, Lexington, Ky.); rabbit polyclonal anti-Bax and anti-caspase-3 antibodies (1:2000) (Pharmingen, San Diego, Calif.); rabbit polyclonal anti-Bcl-2 (1:1000) and rabbit polyclonal antipoly(ADP-ribose) polymerase (PARP) antibody (1:1000) (VIC5; Roche Molecular Biochemicals, Indianapolis, Ind.); rabbit polyclonal anti-hemagglutinin (HA) antibody (1:1000), goat polyclonal antibodies against extracellular related kinase 1(Erk-1; 1:1000), Erk-2 (1:1000), and β-actin (1:4000) (Santa Cruz Biotechnology, Inc., Santa Cruz, Calif.); rabbit anti-mouse immunoglobulin G (IgG)-horseradish peroxidase conjugate (1:2000) (DAKO, Carpinteria, Calif.); and donkey anti-rabbit IgG-horseradish peroxidase conjugate (1:2000) and rabbit anti-goat IgG-horseradish peroxidase conjugate (1:2000) (Amersham Pharmacia Biotech, Arlington Heights, Ill.).

[4] = test system: JNK in 1799 cells; assay: Immune complex kinase assay for JNK; settings: 10^−7 M
Procedure: Approximately 5×10^6 1799 cells were treated with 10^−7 M deguelin or 0.1% DMSO for various time periods in the absence of any additional stimulatory growth factors. The cells were then treated with 50 ng/mL IGF-I for 15 minutes to activate MAPK. Total cell extracts were prepared in lysis buffer (Lonardo et al. 2002), and ERK-1/2 or c-Jun N-terminal kinase (JNK) were immunoprecipitated from 100 μg of each cell extract using antibodies (1 μg) that recognize ERK1/2 or JNK (Santa Cruz Biotechnology) and protein-A sepharose beads (20 μL) (Amersham Pharmacia Biotech). Kinase assays were performed by incubating the beads with 30 μL of kinase buffer to which 5 μCi of [γ^32P]ATP (2000 cpm/pmol) and 1 μg of substrate (myelin basic protein [MBP; Calbiochem, La Jolla, Calif.] or GST-cJun [Santa Cruz Biotechnology]) were added, as previously described (Lee et al., 2002). The samples were suspended in Laemmli buffer, boiled for 5 min, and then analyzed by SDS-polyacrylamide gel clectrophoresis. The gel was dried and autoradiographed. Total cell lysates from Jurkat cells (Upstate Biotechnology, Inc.) and H1299 NSCLC treated with 50 ng/mL IGF-I for 15 min were used as positive controls. Changes in the level of phosphorylation in MBP or GST-cJun reflect changes in Erk1/2 and JNK activity, respectively.

[5] = test system: PI3K/Akt pathway in 1799 cells; assay: Immunoblot of pAkt and pGSK-3β, 1799 cells; settings: 10^−7 M
Procedure: as §1, with “protocol. […]” for “protocol.”

[6] = test system: PI3K in 1799 cells; assay: PI3K assay of immunoprecipitates; settings: 10^−7 M, IGF-I activated
Procedure: Approximately 5×10^6 1799 cells were treated with 10^−7 M deguelin or 0.1% DMSO for different time periods (0-24 h) in the absence of any additional stimulatory growth factors. PI3K in these cells was then activated by treatment with 50 ng/mL IGF-I for 15 min. Cells were lylsed, and PI3K was immunoprecipitated from 500 μg of total cell extracts with 5 μL of rabbit antibody against full-length rat p85 PI3K (Upstate Biotechnology, Inc.), which coprecipitates the p110 catalytic subunit of PI3K, and 20 μL of protein A-sepharose beads (Amersham Pharmacia Biotech). PI3K activity in the immunoprecipitates was analyzed using bovine brain extract (Type I; Sigma-Aldrich), which contains a mixture of phosphatidylinositol, phosphatidylinositol 4-phosphate, and phosphatidylinositol 4,5-bisphosphate as a substrate, as described (Hsu et al., 2000). Jurkat cell lysates (Upstate Biotechnology, Inc.) and IGF-I-activated […] NSCLC cell lysates were used as positive controls.

COc1cc2c(cc1OC)[C@@H]1C(=O)c3ccc4c(c3O[C@@H]1CO2)C=CC(C)(C)O4 [deguelin, Deguelin]
effect on growth of HB56B cells [1]: Dose- and time-dependent growth-inhibitory effects
cell cycle distribution [2]: No detectable cell cycle changes
caspase-3 activation ([3]; 10^−8 M or 10^−7 M): activated caspase-3
Bax level [3]: dose dependent increase in the level of Bax
Bcl-2 expression [3]: slight decrease in Bcl-2 expression
Bcl-xL level [3]: did not affect the level of Bcl-xL
JNK activity [4]: not affected
levels of pAkt and pGSK-3β ([5]; 0-24 h): time-dependent decrease in the levels of pAkt and pGSK-3β
pAkt level ([5]; by 14 h): virtually undetectable
decrease in PI3K activity compared with untreated cells [6]: approximately 55%
